The mass density is mass per unit of volume.

Drawing on the NIST ThermoML archive (doi:10.1016/j.jct.2018.09.023), this text covers mass density for 1 compound.

± gives the expanded uncertainty stated by the source.

The conditions of this series: 101.3 kPa, Liquid, Vibrating tube method.

With `CCC[n+]1ccn(C)c1.[Br-]` [1-methyl-3-propylimidazolium bromide], the mass density is, setting by setting: (323.15 K) 1317.74 ± 2.5 kg/m3; (333.15 K) 1310.86 ± 2.5 kg/m3; (343.15 K) 1304.04 ± 2.4 kg/m3; (353.15 K) 1297.27 ± 2.4 kg/m3; (363.15 K) 1290.33 ± 2.4 kg/m3.
